This is an account of results in patent publication US8173689B2 (Novartis AG, priority 2006, dated 2012).

In assay [1] the target is T1, cytoplasmic domain of the human CSF-1R (Homo sapiens, UniProt P07333).
T1 construct: Recombinant protein corresponding to the cytoplasmic domain of the human CSF-1R; purchased Invitrogen Corporation, Carlsbad, Calif; PV3249
T1 sequence (P07333 539-972 limits assumed): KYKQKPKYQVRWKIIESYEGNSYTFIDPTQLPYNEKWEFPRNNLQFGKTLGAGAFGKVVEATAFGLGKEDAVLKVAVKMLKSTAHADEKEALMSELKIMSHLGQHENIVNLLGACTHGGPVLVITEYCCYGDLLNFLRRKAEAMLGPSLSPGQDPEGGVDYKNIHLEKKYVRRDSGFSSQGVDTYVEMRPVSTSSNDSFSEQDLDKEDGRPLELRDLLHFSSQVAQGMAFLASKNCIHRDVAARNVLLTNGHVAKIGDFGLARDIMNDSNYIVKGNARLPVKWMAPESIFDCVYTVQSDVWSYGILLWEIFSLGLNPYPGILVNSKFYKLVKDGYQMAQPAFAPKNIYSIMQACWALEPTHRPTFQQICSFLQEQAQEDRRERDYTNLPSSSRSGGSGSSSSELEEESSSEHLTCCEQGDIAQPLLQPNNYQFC
In words: In vitro kinase assay for colony stimulating factor-1 receptor (AlphaScreen). The assay is classed as biochemical. The note with it: read-out: CSF-1R percent inhibition. The gist of the method:
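Test compounds, serially diluted threefold starting at 25 μM, were mixed with Hepes buffer (pH 7.5, Mg2+/Mn2+, DTT, BSA, Tween 80) containing 1 μM ATP. Recombinant kinase was present at 4 nM. After stopping, beads were added and plates were read the next day by AlphaScreen.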
(In general: In Alpha technology, singlet oxygen from a donor bead excites a nearby acceptor bead.)

Another assay addresses T2, kinase domain of PDGFRβ (Homo sapiens, UniProt P09619).
T2 construct: The kinase domain of PDGFRβ was assayed in 50 mM Hepes; purchased Invitrogen P3082
The experiment in a line: Inhibition of PDGFRb kinase signaling in an in vitro biochemical assay (alphascreen). The settings on record: tested at about 1 μM, read-out: PDGFRβ percent inhibition.

Another assay concerns the target T3, kinase domain of cKIT (Homo sapiens, UniProt P10721).
T3 construct: The kinase domain of cKIT was assayed in 50 mM Hepes; purchased Upstate 14-559
In words: Inhibition of cKIT kinase signaling in an in vitro biochemical assay (alphascreen). The note with it: tested at about 1 μM, read-out: cKit percent inhibition.

Assay [2] relates to MNFS60 (murine AML cells). The experiment in a line: Cell viability assay in MCSF dependent MNFS60 cells (Cell Titer Glo). The class given is cell-based. The settings on record: Mus musculus, read-out: M-NFS-60 CP percent inhibition. The method in brief:
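3-fold DMSO dilution series (500× stocks); MCSF 10 ng/ml final; 72 hrs, 37° C., 5% CO2; CellTiter-Glo read-out; n=3; EC50 fitted.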

Assay [3] has as its target T4, full-length human CSF-1R receptor (Homo sapiens, UniProt P07333).
T4 construct: transfected with the full-length human CSF-1R receptor cloned in house; expressed in transfected cells; host or cells: HEK293H (Invitrogen Cat. #11631017)
In words: In vitro inhibition of CSF-1R receptor tyrosine phosphorylation in transfected HEK293H cells stimulated with MCSF. The class given is cell-based. The note with it: HEK293-H, read-out: pCSF1R percent inhibition. As to the method: The lysate was then transferred to total CSF-1R antibody coated 96-well plates that had already been blocked with 3% Blocker A from Mesoscale discovery (MSD) for 2 hours and washed afterwards. Lysates were incubated overnight at 4° C. and the plates were then washed 4× with MSD Tris Wash Buffer. […] The plates were read on the Sector 6000 instrument (MSD). Raw data was imported in Abase and EC50s calculated with XL-fit data analysis software.

Where [4] appears, read: tested at about 1 μM, MNFS60 cells.
Setting [5] is: tested at about 1 μM, HEK293H cells.
The mark [6] stands for this setting: tested at about 1 μM, compounds of Table 3.

Like-named read-outs stand apart in the source and are kept apart here.

T2 sequence (P09619 600-962 limits assumed): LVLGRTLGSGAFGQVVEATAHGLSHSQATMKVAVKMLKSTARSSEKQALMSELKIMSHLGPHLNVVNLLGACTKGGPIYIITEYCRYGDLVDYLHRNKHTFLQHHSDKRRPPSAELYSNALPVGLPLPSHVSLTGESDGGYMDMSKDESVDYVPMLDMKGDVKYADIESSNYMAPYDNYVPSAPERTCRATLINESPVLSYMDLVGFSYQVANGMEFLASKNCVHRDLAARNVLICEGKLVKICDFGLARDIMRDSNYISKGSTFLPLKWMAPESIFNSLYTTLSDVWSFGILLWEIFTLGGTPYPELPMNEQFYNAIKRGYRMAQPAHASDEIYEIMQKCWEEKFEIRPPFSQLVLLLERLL
T4 sequence (P07333 20-972): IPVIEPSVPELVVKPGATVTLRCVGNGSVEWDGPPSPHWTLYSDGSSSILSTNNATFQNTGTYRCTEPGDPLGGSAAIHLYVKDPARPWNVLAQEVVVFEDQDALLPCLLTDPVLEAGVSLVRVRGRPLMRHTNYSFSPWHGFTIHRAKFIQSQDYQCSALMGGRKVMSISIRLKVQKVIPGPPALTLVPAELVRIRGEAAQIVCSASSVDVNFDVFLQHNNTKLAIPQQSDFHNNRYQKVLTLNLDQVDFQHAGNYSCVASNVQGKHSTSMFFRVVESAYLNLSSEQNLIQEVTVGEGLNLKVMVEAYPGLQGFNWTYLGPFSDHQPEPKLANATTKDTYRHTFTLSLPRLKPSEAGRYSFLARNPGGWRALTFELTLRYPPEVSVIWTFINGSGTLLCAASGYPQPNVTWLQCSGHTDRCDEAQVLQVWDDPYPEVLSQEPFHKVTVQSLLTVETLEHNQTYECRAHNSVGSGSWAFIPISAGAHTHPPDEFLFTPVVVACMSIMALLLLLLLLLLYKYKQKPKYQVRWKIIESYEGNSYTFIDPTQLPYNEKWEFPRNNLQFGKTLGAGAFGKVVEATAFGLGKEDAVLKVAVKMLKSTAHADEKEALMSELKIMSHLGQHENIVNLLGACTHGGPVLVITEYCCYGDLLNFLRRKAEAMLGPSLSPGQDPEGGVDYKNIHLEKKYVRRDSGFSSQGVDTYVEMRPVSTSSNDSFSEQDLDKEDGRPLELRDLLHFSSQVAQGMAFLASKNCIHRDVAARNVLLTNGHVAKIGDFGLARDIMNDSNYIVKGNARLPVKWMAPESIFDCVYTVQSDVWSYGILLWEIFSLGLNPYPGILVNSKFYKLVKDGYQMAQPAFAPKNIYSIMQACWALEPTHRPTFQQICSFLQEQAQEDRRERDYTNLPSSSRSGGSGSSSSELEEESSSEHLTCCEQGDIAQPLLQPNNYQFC
T3 sequence (P10721 589-937 limits assumed): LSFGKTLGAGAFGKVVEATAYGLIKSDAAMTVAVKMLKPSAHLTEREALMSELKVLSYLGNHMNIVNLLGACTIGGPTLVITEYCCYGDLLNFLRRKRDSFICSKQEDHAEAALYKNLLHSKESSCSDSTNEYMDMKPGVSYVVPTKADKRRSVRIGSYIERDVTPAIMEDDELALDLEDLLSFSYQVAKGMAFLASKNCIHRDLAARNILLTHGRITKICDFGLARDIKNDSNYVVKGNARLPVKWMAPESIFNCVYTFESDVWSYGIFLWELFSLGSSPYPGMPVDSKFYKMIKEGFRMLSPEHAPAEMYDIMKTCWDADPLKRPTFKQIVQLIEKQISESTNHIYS

As a reminder, the inhibition is the share of the control response that was lost under treatment. For `CNC(=O)c1cc(Oc2ccc3nc(NCc4cccc5c4OCCCO5)oc3c2)ccn1` [Compound 108, 4-{2-[(3,4-Dihydro-2H-benzo[b][1,4]dioxepin-6-ylmethyl)-amino]-benzooxazol-6-yloxy}-pyridine-2-carboxylic acid methylamide], the inhibition at 1 µM is 99% in assay [1] (tested at about 1 μM); 40% at kinase domain of PDGFRβ; 100% at kinase domain of cKIT; 100% in assay [2] (setting [4]); 98% in assay [3] (setting [5]).

With `Cn1cc(-c2cc(Oc3ccc4nc(N[C@@H]5CCCC[C@H]5O)sc4c3)ccn2)cn1` [Example 344, (1R,2R)-2-(6-(2-(1-methyl-1H-pyrazol-4-yl)pyridin-4-yloxy)benzo[d]thiazol-2-ylamino)cyclohexanol], the inhibition at 1 µM in assay [1] amounted to 100%; on kinase domain of PDGFRβ it was 65%; on kinase domain of cKIT, 45%; in assay [2], 100%; in assay [3] it was 95%.

`CC(C)[C@@H](CO)Nc1nc2ccc(Oc3ccnc(-c4cnn(C)c4)c3)cc2s1` [Example 352, (S)-3-methyl-2-(6-(2-(1-methyl-1H-pyrazol-4-yl)pyridin-4-yloxy)benzo[d]thiazol-2-ylamino)butan-1-ol]: the inhibition at 1 µM in assay [1] (tested at about 1 μM) is 100%; on kinase domain of PDGFRβ, 74%; on kinase domain of cKIT, 45%; in assay [2] (tested at about 1 μM, MCSF dependent MNFS60 cells), 100%; in assay [3] (setting [5]), 97%.

In the case of `CNC(=O)c1cc(Oc2ccc3nc(N[C@H]4CCCC[C@@H]4O)oc3c2)ccn1` [Compound 52, 4-[2-((1S,2S)-2-Hydroxy-cyclohexylamino)-benzooxazol-6-yloxy]-pyridine-2-carboxylic acid methylamide], the inhibition at 1 µM in assay [1] (tested at about 1 μM) came out at 100%; at kinase domain of PDGFRβ it was 50%; on kinase domain of cKIT it was 12%; in assay [2] (setting [4]), 56%; in assay [3] (setting [5]) it was 71%.

As for `CNC(=O)c1cc(Oc2ccc3nc(NCc4ccc(=O)[nH]c4)sc3c2)ccn1` [Compound 89], the inhibition at 1 µM is 100% in assay [1] (setting [6]); 2% at kinase domain of PDGFRβ (compounds of Table 3); 15% on kinase domain of cKIT (compounds of Table 3); 15% in assay [2] (setting [6]); 65% in assay [3] (setting [6]).

Turning to `C[C@H](Nc1nc2ccc(Oc3ccnc(-c4cccnc4)c3)cc2s1)C1CCCCC1` [Example 274, (S)-6-(2,3'-bipyridin-4-yloxy)-N-(1-cyclohexylethyl)benzo[d] thiazol-2-amine], the inhibition at 1 µM in assay [1] (setting [6]) stood at 100%; on kinase domain of PDGFRβ (compounds of Table 3), 12%; at kinase domain of cKIT (compounds of Table 3) it was 28%; in assay [2] (setting [6]), 76%; in assay [3] (setting [6]), 82%.

As to `CC(C)[C@@H](CO)Nc1nc2ccc(Oc3ccnc4ccccc34)cc2s1` [Example 244, (S)-3-methyl-2-(6-(quinolin-4-yloxy)benzo[d]thiazol-2-ylamino)butan-1-ol], the inhibition at 1 µM worked out at 100% in assay [1] (setting [6]); 35% at kinase domain of PDGFRβ (compounds of Table 3); 25% at kinase domain of cKIT (compounds of Table 3); 67% in assay [2] (setting [6]); 85% in assay [3] (setting [6]).

With `CNC(=O)c1cc(Oc2ccc3nc(NCc4ccccc4N4CCOCC4)oc3c2)ccn1` [Compound 88, 4-[2-(2-Morpholin-4-yl-benzylamino)-benzooxazol-6-yloxy]-pyridine-2-carboxylic acid methylamide], the inhibition at 1 µM turned out to be 100% in assay [1] (tested at about 1 μM), 98% at kinase domain of cKIT, 100% in assay [2] (setting [4]) and 96% in assay [3] (setting [5]).

With `CNC(=O)c1cc(Oc2ccc3nc(Nc4ccc(OC)cc4OC)oc3c2)ccn1` [Compound 28, 4-[2-(2,4-Dimethoxy-phenyl-amino)-benzooxazol-6-yl-oxy]-pyridine-2-carboxylic acid methylamide], the inhibition at 1 µM in assay [1] (tested at about 1 μM) was 99%; at kinase domain of PDGFRβ, 98%; in assay [2] (setting [4]), 98%; in assay [3] (setting [5]) it was 88%.

On to `CNC(=O)c1cc(Oc2ccc3nc(NCc4ccccc4F)oc3c2)ccn1` [Compound 16, 4-[2-(2-Fluoro-benzylamino)-benzooxazol-6-yloxy]-pyridin-2-carboxylic acid methylamide], for which the inhibition at 1 µM in assay [1] (tested at about 1 μM) is 99%; at kinase domain of PDGFRβ, 20%; in assay [2] (setting [4]), 25%; in assay [3] (setting [5]) it was 81%.

In the case of `CNC(=O)c1cc(Oc2ccc3nc(NCc4ccccc4N(C)C)oc3c2)ccn1` [Compound 85, 4-[2-(2-Dimethylamino-benzylamino)-benzooxazol-6-yloxy]-pyridine-2-carboxylic acid methylamide], the inhibition at 1 µM in assay [1] (tested at about 1 μM) stood at 99%; on kinase domain of cKIT it was 79%; in assay [2] (setting [4]), 100%; in assay [3] (setting [5]) it was 98%.

Consider `CNC(=O)c1cc(Oc2ccc3nc(NCc4cccc(OC)c4OC)oc3c2)ccn1` [Compound 91, 4-[2-(2,3-Dimethoxy-benzyl-amino)-benzooxazol-6-yloxy]-pyridine-2-carboxylic acid methylamide], for which the inhibition at 1 µM in assay [1] (tested at about 1 μM) is 99%; at kinase domain of cKIT it was 93%; in assay [2] (setting [4]), 87%; in assay [3] (setting [5]), 97%.

Turning to `CNC(=O)c1cc(Oc2ccc3nc(NC4CCCC(C)C4)oc3c2)ccn1` (stereo not drawn) [Compound 10, 4-[2-(3-Methyl-cyclohexyl-amino)-benzooxazol-6-yloxy]-pyridine-2-carboxylic acid methylamide], the inhibition at 1 µM is 99% in assay [1] (tested at about 1 μM), 35% at kinase domain of PDGFRβ, 62% in assay [2] (setting [4]) and 79% in assay [3] (setting [5]).

As to `CNC(=O)c1cc(Oc2ccc3nc(Nc4ccccc4CN4CCOCC4)oc3c2)ccn1` [Compound 25, 4-[2-(2-Morpholin-4-ylmethyl-phenylamino)-benzooxazol-6-yloxy]-pyridine-2-carboxylic acid methylamide], the inhibition at 1 µM was determined as 98% in assay [1] (tested at about 1 μM), 7% on kinase domain of PDGFRβ, 42% in assay [2] (setting [4]) and 35% in assay [3] (setting [5]).

For the molecule `CC(=O)Nc1cc(Oc2ccc3nc(NCc4ccccc4Cl)oc3c2)ccn1` [Compound 32, N-{4-[2-(2-Chloro-benzylamino)-benzooxazol-6-yloxy]-pyridin-2-yl}-acetamide], the inhibition at 1 µM stood at 100% in assay [1] (tested at about 1 μM), 22% on kinase domain of PDGFRβ, 70% in assay [2] (setting [4]) and 93% in assay [3] (setting [5]).

`COc1cc2nccc(Oc3ccc4nc(N[C@H](C)c5ccccc5)oc4c3)c2cc1OC` [Compound 14, [6-(6,7-Dimethoxy-quinolin-4-yloxy)-benzooxazol-2-yl]-((R)-1-phenyl-ethyl)-amine]: the inhibition at 1 µM was found to be 99% in assay [1] (tested at about 1 μM), 85% at kinase domain of PDGFRβ, 56% in assay [2] (setting [4]) and 71% in assay [3] (setting [5]).

For the molecule `CNC(=O)c1cc(Oc2ccc3nc(N[C@H](C)c4ccccc4OC)oc3c2)ccn1` [Compound 31, 4-{2-[(R)-1-(2-Methoxy-phenyl)-ethylamino]-benzooxazol-6-yloxy}-pyridine-2-carboxylic acid methylamide], the inhibition at 1 µM in assay [1] (tested at about 1 μM) is 100%; at kinase domain of cKIT, 18%; in assay [2] (setting [4]), 57%; in assay [3] (setting [5]) it was 79%.
